Data: EPA's ToxValDB 9.5 (doi:10.2903/j.efsa.2005.26r)
≈ marks a conversion by molar mass, not a printed value.

Assays:
Apis mellifera = settings: acute; duration: 48 hours; oral; unspecified; mortality
Daphnia magna = settings: chronic/long-term; duration: 21 days; reproduction
Oncorhynchus mykiss = settings: acute; duration: 96 hours; mortality
Pimephales promelas = settings: chronic/long-term; duration: 28 days
Tagia sp. = settings: acute; duration: 14 days; mortality
Aphidius rhopalosiphi = experiment: LR50; higher = less toxic; settings: acute; duration: 48 hours; mortality

Question: Which results are given for CNC(=O)ON=C(SC)C(=O)N(C)C [Oxamyl]?
Answer: LD50 (Anas platyrhynchos; acute, oral, unspecified, mortality): 3.16 mg/kg; NOEC (Anas platyrhynchos; reproductive): 50 mg/kg; LC50 (Anas platyrhynchos; short-term, oral, feed, mortality): 340 mg/kg; LD50 (Apis mellifera): 0.38 µg/piece; LC50 (Colinus virginianus; acute, oral, diet, mortality): 766 mg/kg; LD50 (Colinus virginianus; acute, oral, mortality): 9.5 mg/kg; NOEC (Colinus virginianus; reproduction developmental): 10 mg/kg-day; NOEC (Daphnia magna): 0.0268 mg/L; LC50 (Oncorhynchus mykiss): 3.13 µg/mL (≈ 14.3 µM); NOEC (Pimephales promelas): 0.5 mg/L; NOAEL (Rattus norvegicus; acute, oral, gavage, M/F, clinical signs): 0.1 mg/kg-day; LD50 (Rattus norvegicus; acute, oral, mortality): 2.5 mg/kg; NOEC (Rattus norvegicus; reproduction developmental): 1.43 mg/kg-day; LC50 (Tagia sp.): 112 mg/kg; LR50 (Aphidius rhopalosiphi): 0.03 g/ha
